Data as given in patent publication US20230203023A1, “SALT AND CRYSTAL FORMS OF GLP-1R AGONISTS AND USES THEREOF” (QILU REGOR THERAPEUTICS INC., priority 2020, published 2023).
Where a name gives a salt, the structure may show the parent alone. Read-outs that look alike come from different tables or passages of the source. Each block holds one molecule with its values, some of them ahead of it.

Experiments:
Format in all cases: physicochemical
[1] = Kinetic solubility test in water and bio-relevant media (SGF, FaSSIF, FeSSIF); details: for Purity (%), area percentage of API: for reference only (suspensions); for FC: form change: residual solids by XRPD; for pH: supernatant
Protocol: (§1) Weigh 100 mg of sodium chloride and 50 mg of Triton X-100 into a 50-mL volumetric flask. Add appropriate volume of purified water and sonicate until all solids are completely dissolved. Add about 68 μL of 12 M HCl and sufficient purified water closely to the target volume and adjust to pH 1.8. Dilute to volume with purified water, mix well and check the pH with a pH meter.
as §1, with “170” for “100”, “phosphate monobasic, 21” for “chloride and 50”, “sodium hydroxide and 310 mg of sodium chloride, 110 mg of SIF powder” for “Triton X-100”, “Add” for “Add about 68 μL of 12 M HCl and”, “6.5.” for “1.8.”
Weigh 0.41 mL of glacial acetic acid, 202 mg of sodium hydroxide and 594 mg of sodium chloride, 560 mg of SIF powder into a 50-mL volumetric flask. Add appropriate volume of purified water to dissolve the solids. Then add sufficient purified water closely to the target volume and adjust to pH 5.0. Dilute to volume with purified water, mix well and check the pH with a pH meter.
Kinetic solubility was evaluated in water and three bio-relevant media (SGF, FaSSIF and FeSSIF) for 1/4/24 hours. 3-4 mg of solids were suspended in 3 mL each medium (solid loading: 1 mg/mL, calculated using freeform) to get a suspension, followed by rolling (25 rpm) at 37° C. for 1/4/24 hours. At each time point, ˜1.0 mL of suspension was sampled out for centrifugation (12000 rpm, 2 min) and filtration through 0.45 μm PTFE membrane to obtain supernatant for HPLC and pH tests, the residual solids were analyzed by XRPD.
Kinetic solubility was evaluated for 1:1 Compound II Citrate Salt (Form A), 1:1 Compound II Tris Salt (Form B), and freeform of Compound II in water and three bio-relevant media (SGF, FaSSIF and FeSSIF) for 1/4/24 hours. 3-4 mg of solids were suspended in 3 mL each medium (solid loading:
1 mg/mL, calculated using freeform) to get a suspension, followed by rolling (25 rpm) at 37° C. for 1/4/24 hours. At each time point, ˜1.0 mL of suspension was sampled out for centrifugation (12000 rpm, 2 min) and filtration through 0.45 μm PTFE membrane to obtain supernatant for HPLC and pH tests, the residual solids were analyzed by XRPD. […] The purity results were for reference only since the samples were all suspensions.

Hygroscopicity, DVS test = details: for Hygroscopicity: according to Chinese Pharmacopeia 2015
Protocol: DVS was measured via a SMS (Surface Measurement Systems) DVS Intrinsic. The relative humidity at 25° C. were calibrated against deliquescence point of LiCl, Mg(NO3)2 and KCl.
To investigate the solid form stability as a function of humidity, DVS isotherm plot of 1:1 Compound I Tris Salt (Form A) was collected between 0% RH and 95% RH at 25° C. […] Considering the 1:1 Compound I Tris Salt (Form A) is a hydrate and may dehydrate under low humidity, DVS was also tested at 20 and 30° C. to further confirm the suitable storage condition and avoid dehydration. […] Combing the VH-XRPD and DVS results: the condition of 20-30° C. and relative humidity ≥40% RH is suitable for the storage of 1:1 Compound I Tris Salt (Form A).
To investigate the solid form stability as a function of humidity, DVS isotherm plots of 1:1 Compound II Citrate Salt (Form A) and 1:1 Compound II Tris Salt (Form B) were collected at 25° C. between 0% RH and 95% RH. […] The water uptake increased by 0.97% from 10% to 80% RH and a platform was observed.

[2] = Solid stability evaluation (I/II), XRPD and HPLC; details: for Chemical stability compared with free form: 60° C. 1 day, 25° C./60% RH or 40° C./75% RH 1 week
Protocol: To evaluate the physical and chemical stability of 1:1 Compound I Tris Salt (Form A) and amorphous free form, samples were stored under the conditions of 60° C. for 1 day and 25° C./60% RH or 40° C./75% RH for 1 week, respectively.
To evaluate the physical and chemical stability of 1:1 Compound II Citrate Salt (Form A), 1:1 Compound II Tris Salt (Form B) and freeform, samples were stored under the conditions of 60° C. for 1 day and 25° C./60% RH or 40° C./75% RH for 1 week, respectively.

S: solubility ([1]; FaSSIF, 1 hour, 37° C.): 100 µg/mL
Purity (%), area percentage of API ([1]; FaSSIF, 1 hour): 94.86%
S: solubility ([1]; FaSSIF, 4 hours, 37° C.): 20 µg/mL
Purity (%), area percentage of API ([1]; FaSSIF, 4 hours): 76.06%
S: solubility ([1]; FaSSIF, 24 hours, 37° C.): 9 µg/mL
Purity (%), area percentage of API ([1]; FaSSIF, 24 hours): 61.96%
S: solubility ([1]; FeSSIF, 1 hour, 37° C.): 200 µg/mL
Purity (%), area percentage of API ([1]; FeSSIF, 1 hour): 98.94%
S: solubility ([1]; FeSSIF, 4 hours, 37° C.): 300 µg/mL
Purity (%), area percentage of API ([1]; FeSSIF, 4 hours): 95.25%
S: solubility ([1]; FeSSIF, 24 hours, 37° C.): 90 µg/mL
Purity (%), area percentage of API ([1]; FeSSIF, 24 hours): 79.88%
S: solubility ([1]; H2O, 1 hour, 37° C.): 20 µg/mL
Purity (%), area percentage of API ([1]; H2O, 1 hour): 100.00%
S: solubility ([1]; H2O, 4 hours, 37° C.): 20 µg/mL
Purity (%), area percentage of API ([1]; H2O, 4 hours): 91.26%
S: solubility ([1]; H2O, 24 hours, 37° C.): 50 µg/mL
Purity (%), area percentage of API ([1]; H2O, 24 hours): 86.05%
S: solubility ([1]; SGF, 1 hour, 37° C.): 500 µg/mL
Purity (%), area percentage of API ([1]; SGF, 1 hour): 96.79%
S: solubility ([1]; SGF, 4 hours, 37° C.): 80 µg/mL
Purity (%), area percentage of API ([1]; SGF, 4 hours): 91.83%
S: solubility ([1]; SGF, 24 hours, 37° C.): 60 µg/mL
Purity (%), area percentage of API ([1]; SGF, 24 hours): 90.59%
FC: form change ([1]; FaSSIF, 1 hour): No
FC: form change ([1]; FaSSIF, 4 hours): No
FC: form change ([1]; FaSSIF, 24 hours): Yes
FC: form change ([1]; FeSSIF, 1 hour): No
FC: form change ([1]; FeSSIF, 24 hours): Yes
FC: form change ([1]; H2O, 1 hour): No
FC: form change ([1]; H2O, 4 hours): No
FC: form change ([1]; H2O, 24 hours): No
FC: form change ([1]; SGF, 1 hour): Yes
FC: form change ([1]; SGF, 4 hours): Yes
FC: form change ([1]; SGF, 24 hours): Yes
pH ([1]; FaSSIF, 1 hour): 6.3
pH ([1]; FaSSIF, 4 hours): 6.3
pH ([1]; FaSSIF, 24 hours): 6.0
pH ([1]; FeSSIF, 1 hour): 5.0
pH ([1]; FeSSIF, 4 hours): 5.0
pH ([1]; FeSSIF, 24 hours): 4.9
pH ([1]; H2O, 1 hour): 4.8
pH ([1]; H2O, 4 hours): 4.2
pH ([1]; H2O, 24 hours): 3.4
pH ([1]; SGF, 1 hour): 1.9
pH ([1]; SGF, 4 hours): 1.9
pH ([1]; SGF, 24 hours): 1.9
Solubility in SGF, FaSSIF and FeSSIF compared with freeform ([1]; within 1 hour): higher than that of freeform
Form change after DVS test (Hygroscopicity, DVS test; 25° C.): No
Water uptake (80% RH) (Hygroscopicity, DVS test; 25° C.): 0.71%
Water uptake (80% RH) (Hygroscopicity, DVS test; 25° C., listed as 1:1 Compound II Citrate Salt (Form A)): 0.71%
Hygroscopicity (Hygroscopicity, DVS test; 25° C.): Slightly hygroscopic
Form change ([2]; 25° C./60% RH (open), 1 week): No
Observation ([2]; 25° C./60% RH (open), 1 week): White
Purity (area %) ([2]; 25° C./60% RH (open), 1 week): 97.58 area %
Form change ([2]; 40° C./75% RH (open), 1 week): No
Observation ([2]; 40° C./75% RH (open), 1 week): White
Purity (area %) ([2]; 40° C./75% RH (open), 1 week): 97.14 area %
Chemical stability compared with free form [2]: better chemical stability
Form change ([2]; 60° C. (capped), 1 day): No
Observation ([2]; 60° C. (capped), 1 day): White
Purity (area %) ([2]; 60° C. (capped), 1 day): 97.50 area %
Form change ([2]; Initial): No
Observation ([2]; Initial): White
Purity (area %) ([2]; Initial): 97.73 area %
SMILES: N#Cc1ccc(COc2cccc(C3=CCN(Cc4nc5ccc(C(=O)O)cc5n4C[C@@H]4CCO4)CC3)n2)c(F)c1 [Citrate salt Form A, (S)-2-((6-((4-cyano-2-fluorobenzyl)oxy)-3′,6′-dihydro-[2,4′-bipyridin]-1′(2′H)-yl)methyl)-1-(oxetan-2-ylmethyl)-1H-benzo[d]imidazole-6-carboxylic acid]

Purity (%), area percentage of API ([1]; FaSSIF, 1 hour): 92.63%
S: solubility ([1]; FaSSIF, 4 hours, 37° C.): 10 µg/mL
S: solubility ([1]; FaSSIF, 24 hours, 37° C.): 10 µg/mL
Purity (%), area percentage of API ([1]; FaSSIF, 24 hours): 58.70%
Purity (%), area percentage of API ([1]; FeSSIF, 1 hour): 94.61%
S: solubility ([1]; FeSSIF, 4 hours, 37° C.): 200 µg/mL
Purity (%), area percentage of API ([1]; FeSSIF, 4 hours): 81.75%
S: solubility ([1]; FeSSIF, 24 hours, 37° C.): 30 µg/mL
Purity (%), area percentage of API ([1]; FeSSIF, 24 hours): 43.32%
S: solubility ([1]; H2O, 1 hour, 37° C.): 100 µg/mL
Purity (%), area percentage of API ([1]; H2O, 1 hour): 96.74%
S: solubility ([1]; H2O, 4 hours, 37° C.): 100 µg/mL
Purity (%), area percentage of API ([1]; H2O, 4 hours): 89.77%
Purity (%), area percentage of API ([1]; H2O, 24 hours): 60.35%
Solubility in H2O, comparison in words ([1]; H2O, compared with the other tested materials): better solubility
solubility at 1 h ([1]; SGF, 37 °C, pH 1.8, simulated gastric fluid, thermodynamic from solid, SGF, 1 hour, 37° C., read-out: S: solubility): 400 µg/mL
solubility at 4 h ([1]; SGF, 37 °C, pH 1.8, simulated gastric fluid, thermodynamic from solid, SGF, 4 hours, 37° C., read-out: S: solubility): 400 µg/mL
solubility at 24 h ([1]; SGF, 37 °C, pH 1.8, simulated gastric fluid, thermodynamic from solid, SGF, 24 hours, 37° C., read-out: S: solubility): 500 µg/mL
Purity (%), area percentage of API ([1]; SGF, 1 hour): 93.12%
Purity (%), area percentage of API ([1]; SGF, 4 hours): 93.05%
Purity (%), area percentage of API ([1]; SGF, 24 hours): 89.49%
Form change in SGF, in words ([1]; SGF, XRPD after solubility test): Form change was observed
FC: form change ([1]; FaSSIF, 24 hours): No
FC: form change ([1]; SGF, 1 hour): Yes
FC: form change ([1]; SGF, 4 hours): Yes
FC: form change ([1]; SGF, 24 hours): Yes
pH ([1]; FaSSIF, 4 hours): 6.6
pH ([1]; FaSSIF, 24 hours): 6.6
pH ([1]; FeSSIF, 1 hour): 5.1
pH ([1]; H2O, 1 hour): 8.0
pH ([1]; H2O, 4 hours): 8.2
pH ([1]; H2O, 24 hours): 8.4
pH ([1]; SGF, 1 hour): 1.9
pH ([1]; SGF, 4 hours): 2.0
pH ([1]; SGF, 24 hours): 1.9
solubility at 24 h ([1]; water, 37 °C, water, thermodynamic from solid, H2O, 24 hours, 37° C., read-out: S: solubility): 50 µg/mL
Form change after DVS test (Hygroscopicity, DVS test; 20° C.): No
Water uptake (80% RH) (Hygroscopicity, DVS test; 20° C.): 2.24%
Hygroscopicity (Hygroscopicity, DVS test; 20° C.): Hygroscopic
Form change after DVS test (Hygroscopicity, DVS test; 25° C.): No
Water uptake (80% RH) (Hygroscopicity, DVS test; 25° C.): 2.77%
Hygroscopicity (Hygroscopicity, DVS test; 25° C.): Hygroscopic
Form change after DVS test (Hygroscopicity, DVS test; 25° C., listed as 1:1 Compound I Tris Salt (Form A)): No form change
Form change after DVS test (Hygroscopicity, DVS test; 30° C.): No
Water uptake (80% RH) (Hygroscopicity, DVS test; 30° C.): 2.99%
Hygroscopicity (Hygroscopicity, DVS test; 30° C.): Hygroscopic
Purity (area %) ([2]; 25° C./60% RH (open), 1 week): 94.70 area %
Form change ([2]; 40° C./75% RH (open), 1 week): No
Observation ([2]; 40° C./75% RH (open), 1 week): Yellowish
Purity (area %) ([2]; 40° C./75% RH (open), 1 week): 95.40 area %
Chemical stability compared with free form [2]: better chemical stability
Purity (area %) ([2]; 60° C. (capped), 1 day): 93.49 area %
Purity (area %) ([2]; Initial): 95.46 area %
SMILES: O=C(O)c1ccc2nc(CN3CC=C(c4cccc(OCc5ccc(Cl)cc5F)c4)CC3)n(C[C@@H]3CCO3)c2c1 [Tris salt Form A, (S)-2-((4-(3-((4-chloro-2-fluorobenzyl)-oxy)phenyl)-3,6-dihydropyridin-1(2H)-yl)methyl)-1-(oxetan-2-ylmethyl)-1H-benzo[d]-imidazole-6-carboxylic acid]
